Data as given in patent US7468375B2 (Pfizer Inc., priority 2004, dated 2008).
Like-named read-outs stand apart in the source and are kept apart here.

Tests used:
[1] = biological target: T1, Full-length wild type HIV-1 integrase (SF1) (Human immunodeficiency virus type 1 group M subtype B, UniProt P04585); assay: Integrase strand-transfer scintillation proximity assay; type: biochemical; settings: 50 min at 37° C., 246 nM integrase, 50 nM host DNA
T1 construct: made in house; host or cells: E. coli BL21 (DE3)
Excerpt: Integrase Strand-Transfer Scintillation Proximity Assay Oligonucleotides
Oligonucleotide #1-5′-(biotin)[…]-3′ (SEQ ID NO: 1) and oligonucleotide #2-5′-[…]-3′ (SEQ ID NO: 2), were synthesized by TriLink BioTechnologies, Inc. (San Diego, Calif.). The annealed product represents preprocessed viral ds-DNA derived from the LTR U5 sequence of the viral genome. A ds-DNA control to test for non-specific interactions was made using a 3′ di-deoxy derivative of oligonucleotide #1 annealed to oligonucleotide #2. The CA overhang at the 5′ end of the non-biotinylated strand of the ds-DNA was created artificially by using a complimentary DNA oligonucleotide shortened by 2 base pairs. This configuration eliminates the requisite 3′ processing step of the integrase enzyme prior to the strand-transfer mechanism. Host ds-DNA was prepared as an unlabeled and [^3H]-thymidine labeled product from annealed oligonucleotide #3-5-[…]-3′ (SEQ ID NO: 3), and oligonucleotide #4-5′-[…]-3′ (SEQ ID NO: 4), both synthesized by TriLink BioTechnologies, Inc. (San Diego, Calif.). The annealed product had overhanging 3′ ends of poly(dA). Host DNA was custom radiolabeled by PerkinElmer Life Sciences Inc. (Boston, Mass.) using an enzymatic method with a 12/1 ratio of [methyl-3H]dTTP/cold ds-DNA to yield 5′-blunt end ds-DNA with a specific activity of >900 Ci/mmol. The radiolabeled product was purified using a NENSORB cartridge and stored in stabilized aqueous solution (PerkinElmer). The final radiolabeled product had six [^3H]-thymidine nucleotides at both 5′ ends of the host ds-DNA. Reagents: Streptavidin-coated polyvinyltoluene (PVT) SPA beads were purchased from Amersham Biosciences (Piscataway, N.J.). Cesium chloride was purchased from Shelton Scientific, Inc. (Shelton, Conn.). White, polystyrene, flat-bottom, non-binding surface, 96-well plates were purchased from Corning. All other buffer components were purchased from Sigma (St. Louis, Mo.) unless otherwise indicated.
Enzyme Construction: Full-length wild type HIV-1 integrase (SF1) sequence (amino acids 1-288) was constructed in a pET24a vector (Novagen, Madison, Wis.). The construct was confirmed through DNA sequencing. Enzyme Purification: Full length wild-type HIV Integrase was expressed in E. coli BL21 (DE3) cells and induced with 1 mM isopropyl-1 thio-β-D-galactopyranoside (IPTG) when cells reached an optical density between 0.8-1.0 at 600 nm. Cells were lysed by microfluidation in 50 mM HEPES pH 7.0, 75 mM NaCl, 5 mM DTT, 1 mM 4-(2-Aminoethyl)benzenesulfonylfluoride HCl (AEBSF). Lysate was then centrifuged 20 minutes at 11 k rpm in GSA rotor in Sorvall RC-5B at 4° C. Supernant was discarded and pellet resuspended in 50 mM HEPES pH 7.0, 750 mM NaCl, 5 mM DTT, 1 mM AEBSF and homogenized in a 40 mL Dounce homogenizer for 20 minutes on ice. Homogenate was then centrifuged 20 minutes at 11 k rpm in SS34 rotor in Sorvall RC-5B at 4° C. Supernant was discarded and pellet resuspended in 50 mM HEPES pH 7.0, 750 mM NaCl, 25 mM CHAPS, 5 mM DTT, 1 mM AEBSF. Preparation was then centrifuged 20 minutes at 11 k rpm in SS34 rotor in Sorvall RC-5B at 4° C. Supernant was then diluted 1:1 with 50 mM HEPES pH 7.0, 25 mM CHAPS, 1 mM DTT, 1 mM AEBSF and loaded onto a Q-Sepharose column pre-equilibrated with 50 mM HEPES, pH 7.0, 375 mM NaCl, 25 mM CHAPS, 1 mM DTT, 1 mM AEBSF. The flow through peak was collected and NaCl diluted to 0.1 M with 50 mM HEPES pH 7.0, 25 mM CHAPS, 1 mM DTT, 0.5 mM AEBSF and loaded onto a SP-Sepharose column pre-equilibrated with 50 mM HEPES pH 7.0, 100 mM NaCl, 25 mM CHAPS, 1 mM DTT, 0.5 mM AEBSF. After washing the column with the equilibration buffer, a 100 to 400 mM NaCl gradient was run. The eluted integrase was concentrated and run on a S-300 gel diffusion column using 50 mM HEPES pH 7.0, 500 mM NaCl, 25 mM CHAPS, 1 mM DTT, 0.5 mM AEBSF. The peak from this column was concentrated to 0.76 mg/mL and stored at −70° C. and later used for strand transfer assays. […]

[2] = system: RF strain of HIV-1 in CEM-SS cells; assay: HIV-1 cell protection assay (XTT dye reduction); type: cell-based; settings: Human immunodeficiency virus 1, CEM-SS, 144 h, HIV-1 RF, CEM-SS cells, XTT dye reduction, six days; read-out: EC50
Experimental: HIV-1 Cell Protection Assay
The antiviral activities of potential modulator compounds (test compounds) were determined in HIV-1 cell protection assays using the RF strain of HIV-1, CEM-SS cells, and the XTT dye reduction method (Weislow, O. S. et al., J. Natl. Cancer Inst. 81: 577-586 (1989)). Subject cells were infected with HIV-1 RF virus at an moi of 0.025 to 0.819 or mock infected with medium only and added at 2×10^4 cells per well into 96 well plates containing half-log dilutions of test compounds. Six days later, 50 μl of XTT solution (1 mg/ml XTT tetrazolium and […] phenazine methosulfate) were added to the wells and the plates were reincubated for four hours. Viability, as determined by the amount of XTT formazan produced, was quantified spectrophotometrically by absorbance at 450 nm. Data from CPE assays were expressed as the percent of formazan produced in compound-treated cells compared to formazan produced in wells of uninfected, compound-free cells. […] The therapeutic index was calculated by dividing the cytotoxicity (CC50) by the antiviral activity (EC50).

[3] = strand transfer, read-out: IC50

Row | Compound | IC50 [1, 3] | EC50 [2] | IC50 ([1]; IC50, strand transfer)
1 | CN(Cc1cccnc1)Cc1cn(Cc2ccc(F)cc2F)c2cnc(C(=O)NO)cc12 [Example 8, 1-(2,4-Difluorobenzyl)-N-hydroxy-3-{[methyl(pyridin-3-ylmethyl)amino]methyl}-1H-pyrrolo[2,3-c]pyridine-5-carboxamide] | 45 nM | 52 nM | 
2 | O=C(NO)c1cc2c(CN3CCS(=O)(=O)CC3)cn(Cc3ccc(F)cc3F)c2cn1 [Example 9, 1-(2,4-Difluorobenzyl)-3-[(1,1-dioxidothiomorpholin-4-yl)methyl]-N-hydroxy-1H-pyrrolo[2,3-c]pyridine-5-carboxamide] | 20 nM | 7.4 nM | 
3 | NC(=O)CNCc1cn(Cc2ccc(F)cc2F)c2cnc(C(=O)NO)cc12 [Example 10, 3-{[(2-Amino-2-oxoethyl)amino]methyl}-1-(2,4-difluorobenzyl)-N-hydroxy-1H-pyrrolo[2,3-c]pyridine-5-carboxamide] | 84 nM | 18 nM | 
4 | O=C(NO)c1cc2c(CNc3cccnc3)cn(Cc3ccc(F)cc3F)c2cn1 [Example 11, 1-(2,4-Difluorobenzyl)-N-hydroxy-3-[(pyridin-3-ylamino)methyl]-1 pyrrolo[2,3-c]pyridine-5-carboxamide] | 37 nM | 15 nM | 
5 | O=C(NO)c1cc2c(CNC3CCS(=O)(=O)C3)cn(Cc3ccc(F)cc3F)c2cn1 (stereo not shown) [Example 12, 1-(2,4-Difluorobenzyl)-3-{[(1,1-dioxidotetrahydrothien-3-yl)amino]methyl}-N-hydroxy-1H-pyrrolo[2,3-c]pyridine-5-carboxamide] | 36 nM | 19 nM | 
6 | CN1CCN(Cc2cn(Cc3ccc(F)cc3F)c3cnc(C(=O)N(C)O)cc23)CC1 [Example 13] |  | 220 nM | 695 nM
7 | CN1CCN(Cc2cn(Cc3ccc(F)cc3)c3cnc(C(=O)N(C)O)cc23)CC1 [Example 14, 1-(4-Fluorobenzyl)-AN-hydroxy-N-methyl-3-[(4-methylpiperazin-1-yl)methyl]-1H-pyrrolo[2,3-c]pyridine-5-carboxamide] |  | 140 nM | 540 nM
8 | O=C1CN(Cc2cn(Cc3ccc(F)cc3)c3cnc(C(=O)NO)cc23)CCN1 [Example 15, 1-(4-Fluorobenzyl)-N-hydroxy-3-[(3-oxopiperazin-1-yl)methyl]-1 pyrrolo[2,3-c]pyridine-5-carboxamide] | 41 nM | 11 nM | 
9 | COCc1c(C(=O)NO)ncc2c1ccn2Cc1ccc(F)cc1F [Example 19, 1-(2,4-Difluorobenzyl)-N-hydroxy-4-(methoxymethyl)-1-H-pyrrolo[2,3-c]pyridine-5-carboxamide] | 218 nM | 48 nM | 
10 | COCc1c(C(=O)NOC)ncc2c1ccn2Cc1ccc(F)cc1F [Example 20] |  | 82 nM | 1540 nM
11 | O=C(NO)c1cc2ncn(Cc3ccc(F)cc3)c2cn1 [Example 21, 3-(4-Fluorobenzyl)-N-hydroxy-3H-imidazo[4,5-c]pyridine-6-carboxamide] | 517 nM | 84 nM | 
12 | CONC(=O)c1cc2ncn(Cc3ccc(F)cc3)c2cn1 [Example 22, 3-(4-Fluorobenzyl)-N-methoxy-3H-imidazo[4,5-c]pyridine-6-carboxamide] | 1300 nM | 190 nM | 
13 | CN(O)C(=O)c1cc2ncn(Cc3ccc(F)cc3)c2cn1 [Example 23, 3-(4-Fluorobenzyl)-N-hydroxy-N-methyl-3-H-imidazo[4,5-c]pyridine-6-carboxamide] | 1300 nM | 780 nM | 
14 | O=C(NO)c1cc2ncn(Cc3cccc(F)c3F)c2cn1 [Example 24, 3-(2,3-Difluoro-benzyl)-N-hydroxy-3H-imidazo[4,5-c]pyridine-6-carboxamide] | 1040 nM | 110 nM | 
15 | O=C(NO)c1cc2ncn(CCC3CCCCC3)c2cn1 [Example 25, 3-(2-Cyclohexylethyl)-N-hydroxy-3-H-imidazo[4,5-c]pyridine-6-carboxamide] | 1720 nM | 230 nM | 
16 | O=C(NO)c1cc2ccn(CCC3CCCCC3)c2cn1 [Example 26, 1-(2-Cyclohexylethyl)-N-hydroxy-1H-pyrrolo[2,3-c]pyridine-5-carboxamide] | 770 nM | 3700 nM | 
17 | CC(C)N(O)C(=O)c1cc2ccn(Cc3ccc(F)cc3)c2cn1 [Example 27, 1-(4-Fluorobenzyl)-N-hydroxy-N-isopropyl-1H-pyrrolo[2,3-c]pyridine-5-carboxamide] | 8000 nM | 3500 nM | 
18 | CCCN(O)C(=O)c1cc2ccn(Cc3ccc(F)cc3)c2cn1 [Example 28, 1-(4-Fluorobenzyl)-N-hydroxy-N-propyl-1H-pyrrolo[2,3-c]pyridine-5-carboxamide] | 628 nM | 350 nM | 
19 | CC(C)CN(O)C(=O)c1cc2ccn(Cc3ccc(F)cc3)c2cn1 [Example 29, 1-(4-Fluorobenzyl)-N-hydroxy-N-isobutyl-1H-pyrrolo[2,3-c]pyridine-5-carboxamide] | 1700 nM | 1400 nM | 
20 | O=C(c1cc2ccn(Cc3ccc(F)cc3)c2cn1)N(O)CCCO [Example 30, 1-(4-Fluorobenzyl)-N-hydroxy-N-(3-hydroxypropyl)-1H-pyrrolo[2,3-c]pyridine-5-carboxamide] | 804 nM | 300 nM | 
21 | O=C(NO)c1cc2c(cn1)c(C(O)c1ccc(F)cc1)cn2Cc1ccc(F)cc1 (stereo not shown) [Example 31, 1-(4-Fluorobenzyl)-3-[(4-fluorophenyl)(hydroxy)methyl]-N-hydroxy-1H pyrrolo[3,2-c]pyridine-6-carboxamide] | 186 nM | 14 nM | 
22 | O=C(NO)c1cc2c(cn1)c(Cc1ccc(F)cc1)cn2Cc1ccc(F)cc1 [Example 32, 1,3-Bis(4-fluorobenzyl)-N-hydroxy-1H-pyrrolo[3,2-c]pyridine-6-carboxamide] | 215 nM | 25 nM | 
23 | CC1C(=O)NCCN1Cc1cn(Cc2ccc(F)cc2)c2cnc(C(=O)N(C)O)cc12 (stereo not shown) [Example 33, 1-(4-Fluorobenzyl)-N-hydroxy-N-methyl-3-[(2-methyl-3-oxopiperazin-1-yl)methyl]-1H-pyrrolo[2,3-c]pyridine-5-carboxamide] | 463 nM | 210 nM | 
